{"source": "patent US6384043B1", "about": "“Methods of alleviating pain sensations of the denuded eye with opioid analgesics” (priority 1993, dated 2002)", "key": {"[1]": {"test_system": "pupil of morphine-dependent subject", "conditions": "applied topically to one eye of a morphine-dependent subject; cited from earlier work"}, "[2]": {"test_system": "corneal epithelial cell regeneration in pigmented rabbits", "test": "Toxicity test: corneal re-epithelialization (wound healing) after mechanical removal of epithelial cells", "conditions": "for Animals with complete healing of the cornea / total animals per group: 2 drops at 4 hourly intervals for 6 days", "method": "Healthy pigmented rabbits weighing about 1.5-2.2 kg were anesthetized and then corneal epithelial cells were scraped and removed using a blade under direct view of a microscope. The basal lamina was left intact while thorough de-epithelialization was performed and confirmed by staining the surface of the cornea with 1% fluorescein. […] Eyes in each group were instilled with two drops of the corresponding solution at 4 hourly intervals for 6 consecutive days. Wound healing (corneal re-epithelialization) was assessed on days 2, 3, 4, 5, 6, 7, and 8 following corneal abrasion using fluorescein staining with Fluor-I-Strip, and epithelial regeneration and migration were monitored by clinical examinations as well as wound surface area measurements."}, "[3]": {"test_system": "corneal sensitivity of patients with corneal abrasion or after a refractive procedure", "conditions": "2 drops topical, morphine 0.5 mg/ml, mean ± SEM", "description": "The following describes analgesic tests which were performed on patients following topical application of the prepared and previously described topical ophthalmic analgesic formulation. […] Five patients were selected to participate in this study. In all cases, three measurements were made in the following fashion: First, a baseline response (corneal sensitivity) was established by determining the response of the patient eye to a standard pain pressure using a Cochet Bonnet Aesthesiometer instrument and without applying any drug. Measurements were made by beginning with the nylon monofilament (0.12 mm diameter) fully extended. The tip was applied perpendicularly to the corneal surface and gently pressed until the fiber's first visible bending. […] The length was then recorded in units of mm. Second, a saline solution (2 drops) were instilled in the eye and at 10 and 20 minutes later the response of the patient's cornea to pain pressure was determined as described above. These repeated measurements served as a placebo effect for comparison purposes.\nAgain, an Aesthesiometer, based upon the principle of pressure transmitted axially by a nylon monofilament of known diameter but of variable length for a given bending stress, was applied to the corneal surface. […] The distance, in millimeters (mm) of the nylon monofilament is recorded and then converted to pressure in gram/square millimeter."}, "[4]": {"test_system": "pain scores following knee surgery", "conditions": "applied locally inside the joints following knee surgery; cited from earlier work"}}, "note": "Structures can show the parent of a compound that is named as a salt. Where two headings read alike, the source gives them in different places."}
{"molecule": "C=CCN1CC[C@]23c4c5ccc(O)c4O[C@H]2C(=O)CC[C@@]3(O)[C@H]1C5", "note": "[naloxone]", "values": [{"measurement": "Effect on pupil of the same eye", "setting": "[1]", "value": "pupillary dilation"}]}
{"molecule": "CN1CC[C@]23c4c5ccc(O)c4O[C@H]2[C@@H](O)C=C[C@H]3[C@H]1C5.O=S(=O)(O)O", "note": "[Morphine, morphine sulphate]", "values": [{"measurement": "Animals with complete healing of the cornea / total animals per group", "setting": "[2]; day 1", "value": "0/6"}, {"measurement": "Animals with complete healing of the cornea / total animals per group", "setting": "[2]; day 2", "value": "0/6"}, {"measurement": "Animals with complete healing of the cornea / total animals per group", "setting": "[2]; day 3", "value": "0/6"}, {"measurement": "Animals with complete healing of the cornea / total animals per group", "setting": "[2]; day 4", "value": 1}, {"measurement": "Animals with complete healing of the cornea / total animals per group", "setting": "[2]; day 4, sulphate", "value": "1/6"}, {"measurement": "Animals with complete healing of the cornea / total animals per group", "setting": "[2]; day 5, sulphate", "value": "3/6"}, {"measurement": "Animals with complete healing of the cornea / total animals per group", "setting": "[2]; day 6", "value": "4/6"}, {"measurement": "Animals with complete healing of the cornea / total animals per group", "setting": "[2]; day 7, sulphate", "value": "5/6"}, {"measurement": "Animals with complete healing of the cornea / total animals per group", "setting": "[2]; day 8", "value": "5/6"}, {"measurement": "Corneal sensitivity expressed as pressure", "setting": "[3]; 10 min after treatment", "value": "7.69 ± 2.16", "unit": "grm/sq. mm"}, {"measurement": "Corneal sensitivity expressed as pressure", "setting": "[3]; 20 min after treatment", "value": "9.84 ± 1.00", "unit": "grm/sq. mm"}, {"measurement": "Effect on pain scores", "setting": "[4]", "value": "significantly reduced pain scores"}, {"measurement": "Time to maximal effect", "setting": "[4]", "value": "3 to 6", "unit": "h"}]}
{"molecule": "CCCOc1ccc(C(=O)OCCN(CC)CC)cc1N", "note": "[Alcaine, proparacaine HCl]", "values": [{"measurement": "Complete regeneration / wound healing by", "setting": "[2]; pigmented, rabbit, in vivo", "value": "≤ 8", "unit": "days"}, {"measurement": "Day on which eyes began to show epithelial regeneration", "setting": "[2]; rabbit, in vivo", "value": "third day"}, {"measurement": "Effect of repeated topical application on corneal epithelial cell regeneration and migration", "setting": "[2]; rabbit, in vivo", "value": "significantly prevented regeneration"}]}
